Results as given in patent US12599672B2, “KRAS proteolysis targeting chimeras” (PAQ Therapeutics Inc., priority 2023, dated 2026).

Columns and labels:
Assay type in all cases: cell-based
KRAS G12D = target: T1, KRAS G12D (Homo sapiens, UniProt P01116, G12D); experiment: KRAS G12D HiBit assay; conditions: AsPc-1-KRAS (G12D)-HiBit-KI cell, compound treatment for 24 hours, absolute DC50
T1 construct: AsPc-1-KRAS (G12D)-HiBit-KI cell (Pharmaron); host or cells: AsPc-1-KRAS (G12D)-HiBit-KI cells (HiBiT knock-in at the endogenous KRAS locus)
In short: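 HiBiT luminescence, detected by adding lytic buffer, substrate and LgBiT protein, served as the KRAS G12D read-out. Compounds, serially diluted 3-fold over 10 points from 0.3 mM DMSO stock, were on cells for 24 h; percent inhibition normalized to cells given 0.1% DMSO only.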

KRAS = target: T2, KRAS (Homo sapiens, UniProt P01116); experiment: KRASamp MSD assay; conditions: KE39 (KRAS amplified) cells, treated with test compounds for 24 hr, MSD readout of KRAS degradation
T2 construct: endogenous in cells; host or cells: KE39 (KRAS amplified) cells
Protocol: KE39 (KRAS amplified) cells were cultured in RPMI 1640 medium (Gibco, 11875093), seeded into 96 well plate and treated with test compounds for 24 hr. The cells were washed with PBS and lysed in plate for 1 hr at 4° C. with agitation in RIPA buffer (Cat No. BP-115D) supplemented with protease and phosphatase inhibitor cocktail. The lysates were loaded into MSD plate coated with KRAS capture antibody (LSBio, C175665, 1:1000) for 1 h at RT with agitation. The plate was then washed three times with TBST and incubated with KRAS detection antibody (Abcam, Ab275876. 1:2000) for 1 h at RT. After washing three times with TBST, the plate was incubated with secondary detection antibody GAR (1:500) for 1 hr at RT followed with 3×TBST washing. 2×MSD reading buffer was added into individual wells and the plate was finally read by MSD reader (MSD, SQ 120 MM). The recombinant WT KRAS protein was used for standard curve generation and protein quantification. The degradation activity was calculated using the following formula: […]
DC50 was calculated by fitting the curve using GraphPad Prism v8.0.2 (analysis 263): […]

KRAS G12V = target: T3, KRAS G12V (Homo sapiens, UniProt P01116, G12V); experiment: KRAS G12V HiBit assay; conditions: SW620-KRAS (G12V)-HiBit-KI cells, compound treatment for 24 hours
T3 construct: SW620-KRAS (G12V)-HiBit-KI cell (Pharmaron); host or cells: SW620-KRAS (G12V)-HiBit-KI cells (HiBiT knock-in at the endogenous KRAS locus)
In short: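 Luminescence from lytic Nano-Glo HiBiT detection with LgBiT read KRAS G12V levels after 24 h compound exposure. Dilutions were 10-point, 3-fold, from a 0.3 mM DMSO stock. Degradation activity was normalised to cells given 0.1% DMSO alone.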

[1] = numeric bounds given in place of class symbols

T3 sequence (P01116 1-188 isoform P01116-2 G12V): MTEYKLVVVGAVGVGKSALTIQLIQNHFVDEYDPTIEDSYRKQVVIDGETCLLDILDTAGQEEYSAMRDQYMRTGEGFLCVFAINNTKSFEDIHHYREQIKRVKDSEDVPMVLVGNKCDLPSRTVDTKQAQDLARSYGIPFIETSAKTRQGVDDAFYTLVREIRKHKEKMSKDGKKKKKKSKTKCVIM
T2 sequence (P01116 1-188 isoform P01116-2): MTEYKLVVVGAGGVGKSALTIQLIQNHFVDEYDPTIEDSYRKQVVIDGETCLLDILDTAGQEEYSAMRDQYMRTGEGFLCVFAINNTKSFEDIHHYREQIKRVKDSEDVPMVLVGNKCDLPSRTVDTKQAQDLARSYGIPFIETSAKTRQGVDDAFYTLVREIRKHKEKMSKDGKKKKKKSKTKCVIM
T1 sequence (P01116 1-188 isoform P01116-2 G12D): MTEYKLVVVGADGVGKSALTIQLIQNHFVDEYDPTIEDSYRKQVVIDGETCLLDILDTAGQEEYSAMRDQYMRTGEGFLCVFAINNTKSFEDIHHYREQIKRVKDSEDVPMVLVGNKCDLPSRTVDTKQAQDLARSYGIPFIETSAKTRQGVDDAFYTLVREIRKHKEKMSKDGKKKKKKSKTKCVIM

CCc1c(F)ccc2cc(O)cc(-c3ncc4c(N5CCC[C@@H](CO)C5)nc(OC[C@@]56CCCN5[C@H](COC(=O)N5CCC(CN7CCC(c8ccc9c(c8)n(C)c(=O)n9C8CCC(=O)NC8=O)CC7)CC5)CC6)nc4c3F)c12 (stereo partly drawn) [Compound 340, ((3S,7aS)-7a-(((7-(8-ethyl-7-fluoro-3-hydroxynaphthalen-1-yl)-8-fluoro-4-((R)-3-(hydroxymethyl)piperidin-1-yl)pyrido[4,3-d]pyrimidin-2-yl)oxy)methyl)hexahydro-1H-pyrrolizin-3-yl)methyl 4-((4-(1-(2,6-dioxopiperidin-3-yl)-3-methyl-2-oxo-2,3-dihydro-1H-benzo[d]imidazol-5-yl)piperidin-1-yl)methyl)piperidine-1-carboxylate]
DC50 (KRAS G12D; class symbols): < 100 nM | DC50 (KRAS): < 1 nM | DC50 (KRAS G12V; class symbols): < 10 nM

CCc1c(F)ccc2cc(O)cc(-c3ncc4c(N5CCC[C@@](C)(O)C5)nc(OC[C@@]56CCCN5C(CN5CCC(Cc7ccc8c(c7)n(C)c(=O)n8C7CCC(=O)NC7=O)CC5)CC6)nc4c3F)c12 (stereo partly drawn) [Compound 383, 3-(5-((1-(((7aS)-7a-(((7-(8-ethyl-7-fluoro-3-hydroxynaphthalen-1-yl)-8-fluoro-4-((R)-3-hydroxy-3-methylpiperidin-1-yl)pyrido[4,3-d]pyrimidin-2-yl)oxy)methyl)hexahydro-1H-pyrrolizin-3-yl)methyl)piperidin-4-yl)methyl)-3-methyl-2-oxo-2,3-dihydro-1H-benzo[d]imidazol-1-yl)piperidine-2,6-dione]
DC50 (KRAS G12D; class symbols): < 100 nM | DC50 (KRAS): ≥ 10 nM | DC50 (KRAS G12V; numeric bounds): > 91.5 nM

C#Cc1c(F)ccc2cc(O)cc(-c3ncc4c(N5CCC[C@@](C)(O)C5)nc(OCC5(CN6CCC7(CC6)CC(N6CCC(c8cccc9c8n(C)c(=O)n9C8CCC(=O)NC8=O)CC6)C7)CC5)nc4c3F)c12 (some centres unmarked) [Compound 64]
DC50 (KRAS G12D; class symbols): < 100 nM | DC50 (KRAS): < 1 nM | DC50 (KRAS G12V; class symbols): < 10 nM

CCc1c(F)ccc2cc(O)cc(-c3ncc4c(N5CCC[C@@](C)(O)C5)nc(OC[C@]56CCCN5[C@H](COC(=O)N5CCC(CCCCOc7ccc8c(c7)n(C)c(=O)n8C7CCC(=O)NC7=O)CC5)CC6)nc4c3F)c12 (stereo partly drawn) [Compound 303, ((3S,7aR)-7a-(((7-(8-ethyl-7-fluoro-3-hydroxynaphthalen-1-yl)-8-fluoro-4-((R)-3-hydroxy-3-methylpiperidin-1-yl)pyrido[4,3-d]pyrimidin-2-yl)oxy)methyl)hexahydro-1H-pyrrolizin-3-yl)methyl 4-(4-((1-(2,6-dioxopiperidin-3-yl)-3-methyl-2-oxo-2,3-dihydro-1H-benzo[d]imidazol-5-yl)oxy)butyl)piperidine-1-carboxylate]
DC50 (KRAS G12D; class symbols): < 100 nM | DC50 (KRAS): 1 to 10 nM | DC50 (KRAS G12V; class symbols): < 10 nM

CCc1c(F)ccc2cc(O)cc(-c3ncc4c(N5CCC[C@@](C)(O)C5)nc(OC[C@@]56CCCN5[C@H](COc5ccc(CN7CCC(c8ccc9c(c8)n(C)c(=O)n9C8CCC(=O)NC8=O)CC7)cc5)CC6)nc4c3F)c12 (stereo partly drawn) [Compound 458, 3-(5-(1-(4-(((3S,7aS)-7a-(((7-(8-ethyl-7-fluoro-3-hydroxynaphthalen-1-yl)-8-fluoro-4-((R)-3-hydroxy-3-methylpiperidin-1-yl)pyrido[4,3-d]pyrimidin-2-yl)oxy)methyl)hexahydro-1H-pyrrolizin-3-yl)methoxy)benzyl)piperidin-4-yl)-3-methyl-2-oxo-2,3-dihydro-1H-benzo[d]imidazol-1-yl)piperidine-2,6-dione]
DC50 (KRAS G12D; class symbols): < 100 nM | DC50 (KRAS): < 1 nM | DC50 (KRAS G12V; class symbols): 10 to 100 nM

CCc1c(F)ccc2cc(O)cc(-c3ncc4c(N5CCC[C@@](C)(O)C5)nc(OCC56CCCN5[C@@H](COC(=O)N5CCC(CN7CCC(c8ccc9c(c8)n(C)c(=O)n9C8CCC(=O)NC8=O)CC7)CC5)CC6)nc4c3F)c12 (stereo partly drawn) [Compound 121, (cis-7a-(((7-(8-Ethyl-7-fluoro-3-hydroxynaphthalen-1-yl)-8-fluoro-4-((R)-3-hydroxy-3-methylpiperidin-1-yl)pyrido[4,3-d]pyrimidin-2-yl)oxy)methyl)hexahydro-1H-pyrrolizin-3-yl)methyl 4-((4-(1-(2,6-dioxopiperidin-3-yl)-3-methyl-2-oxo-2,3-dihydro-1H-benzo[d]imidazol-5-yl)piperidin-1-yl)methyl) piperidine-1-carboxylate]
DC50 (KRAS G12D; class symbols): < 100 nM | DC50 (KRAS): 1 to 10 nM | DC50 (KRAS G12V; class symbols): < 10 nM

CCc1c(F)ccc2cc(O)cc(-c3ncc4c(N5CCC[C@@](C)(O)C5)nc(OC[C@@]56CCCN5[C@H](COC(=O)Nc5ccc(CN7CCC(c8ccc9c(c8)n(C)c(=O)n9C8CCC(=O)NC8=O)CC7)cc5)CC6)nc4c3F)c12 (stereo partly drawn) [Compound 450, ((3S,7aS)-7a-(((7-(8-ethyl-7-fluoro-3-hydroxynaphthalen-1-yl)-8-fluoro-4-((R)-3-hydroxy-3-methylpiperidin-1-yl)pyrido[4,3-d]pyrimidin-2-yl)oxy)methyl)hexahydro-1H-pyrrolizin-3-yl)methyl (4-((4-(1-(2,6-dioxopiperidin-3-yl)-3-methyl-2-oxo-2,3-dihydro-1H-benzo[d]imidazol-5-yl)piperidin-1-yl)methyl)phenyl)carbamate]
DC50 (KRAS G12D; class symbols): < 100 nM | DC50 (KRAS): < 1 nM | DC50 (KRAS G12V; class symbols): < 10 nM

C#Cc1c(F)ccc2cc(O)cc(-c3ncc4c(N5CCC[C@@](C)(O)C5)nc(OC[C@@]56CCCN5[C@H](COC(=O)NC5CN(C7CCN(c8ccc9c(c8)n(C)c(=O)n9C8CCC(=O)NC8=O)CC7)C5)CC6)nc4c3F)c12 (stereo partly drawn) [Compound 325, ((3S,7aS)-7a-(((7-(8-ethynyl-7-fluoro-3-hydroxynaphthalen-1-yl)-8-fluoro-4-((R)-3-hydroxy-3-methylpiperidin-1-yl)pyrido[4,3-d]pyrimidin-2-yl)oxy)methyl)hexahydro-1H-pyrrolizin-3-yl)methyl (1-(1-(1-(2,6-dioxopiperidin-3-yl)-3-methyl-2-oxo-2,3-dihydro-1H-benzo[d]imidazol-5-yl)piperidin-4-yl)azetidin-3-yl)carbamate]
DC50 (KRAS G12D; [1]): > 100 nM | DC50 (KRAS): ≥ 10 nM | DC50 (KRAS G12V; class symbols): > 100 nM

C#Cc1c(F)ccc2cc(O)cc(-c3ncc4c(N5CCC[C@@](C)(O)C5)nc(OC[C@@]56CCCN5[C@H](COC(=O)N5CCC(C7CCN(c8ccc9c(c8)n(C)c(=O)n9C8CCC(=O)NC8=O)CC7)CC5)CC6)nc4c3F)c12 (some centres unmarked) [Compound 32]
DC50 (KRAS G12D; [1]): > 100 nM | DC50 (KRAS): 1 to 10 nM

CCc1c(F)ccc2cc(O)cc(-c3ncc4c(N5CCC[C@@](C)(O)C5)nc(OC[C@@]56CCCN5[C@H](COC(=O)N5CCC(CN7CC8(CC(c9ccc%10c(c9)n(C)c(=O)n%10C9CCC(=O)NC9=O)C8)C7)CC5)CC6)nc4c3F)c12 (stereo partly drawn) [Compound 366, ((3S,7aS)-7a-(((7-(8-ethyl-7-fluoro-3-hydroxynaphthalen-1-yl)-8-fluoro-4-((R)-3-hydroxy-3-methylpiperidin-1-yl)pyrido[4,3-d]pyrimidin-2-yl)oxy)methyl)hexahydro-1H-pyrrolizin-3-yl)methyl 4-((6-(1-(2,6-dioxopiperidin-3-yl)-3-methyl-2-oxo-2,3-dihydro-1H-benzo[d]imidazol-5-yl)-2-azaspiro[3.3]heptan-2-yl)methyl)piperidine-1-carboxylate]
DC50 (KRAS G12D; class symbols): < 100 nM | DC50 (KRAS G12V; class symbols): 10 to 100 nM

CCc1c(F)ccc2cc(O)cc(-c3ccc4c(N5CCC[C@@](C)(O)C5)nc(OC[C@@]56CCCN5[C@H](COC(=O)N5CCC(CN7CCC(c8ccc9c(c8)n(C)c(=O)n9C8CCC(=O)NC8=O)CC7)CC5)CC6)nc4c3F)c12 (some centres unmarked) [Compound 146]
DC50 (KRAS G12D; class symbols): < 100 nM | DC50 (KRAS G12V; class symbols): < 10 nM

CCc1c(F)ccc2cc(O)cc(-c3ncc4c(N5CCC[C@@](C)(O)C5)nc(OC[C@@]56CCCN5[C@H](COC(=O)N5CCC(Oc7ccc(-c8ccc9c(c8)n(C)c(=O)n9C8CCC(=O)NC8=O)cc7)CC5)CC6)nc4c3F)c12 (stereo partly drawn) [Compound 496, ((3S,7aS)-7a-(((7-(8-ethyl-7-fluoro-3-hydroxynaphthalen-1-yl)-8-fluoro-4-((R)-3-hydroxy-3-methylpiperidin-1-yl)pyrido[4,3-d]pyrimidin-2-yl)oxy)methyl)hexahydro-1H-pyrrolizin-3-yl)methyl 4-(4-(1-(2,6-dioxopiperidin-3-yl)-3-methyl-2-oxo-2,3-dihydro-1H-benzo[d]imidazol-5-yl)phenoxy)piperidine-1-carboxylate]
DC50 (KRAS G12D; [1]): > 100 nM | DC50 (KRAS G12V; class symbols): > 100 nM
